The test system of one assay is Tilletia caries. Nature of the assay: Treatment of oat seeds infested with Tilletia caries (spore germination). It is filed as in vivo.
A further assay relates to Venturia inaequalis. Nature of the assay: Prophylactic leaf treatment of apples in open field test against Venturia inaequalis. The assay is classed as in vivo. To be noted: 3 weeks.
For the next assay, the system named is Pythium ultimum. The assay is described as follows: Threshold concentration test for use of the compounds against Pythium ultimum (infested soil, garden peas). The assay is classed as in vivo. Also on record: key to root evaluation (1-4): 4: white roots without fungous necrosis; 3: white roots, minor fungous necrosis; 2: brown roots, already more pronounced fungous necrosis; 1: heavy fungous necrosis, roots rotted. To be noted: for root evaluation (1-4): 3 weeks; for number of sound peas: 20 grains per dish, 3 weeks at 20-24° C. An outline of the steps:
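Pulverulent agents at 20% concentration mixed evenly into soil heavily infested with Pythium ultimum, then garden peas ('Wunder von Kelvedon', 20 per dish) sown at once. After three weeks at 20–24 °C in a hothouse, sound peas counted and roots scored on a 1–4 scale.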

Assay [1] has as its system Helminthosporium gramineum. Nature of the assay: Seed treatment in open field tests for infestation by Helminthosporium gramineum (barley). To be noted: summer barley; 50 g active agent/100 kg barley; about 3 months. The assay is classed as in vivo. Here is the method:
Seed treatment in open field tests for infestation by Helminthosporium gramineum
The active agents were used in the form of pulverulent compositions. After about 8 months in case of winter barley and after about 3 months in case of summer barley the infested plants were counted and the activity was calculated by the formula [formula]

Another assay concerns Piricularia oryzae. It is filed as in vivo. To be noted: concentration of active agent 0.1 (percentages); 5 days.
In the next assay the test system is Plasmopara viticola. Nature of the assay: Prophylactic leaf treatment of grapevines in the hothouse against Plasmopara viticola. It is filed as in vivo. A digest of the protocol:
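Grapevines (5–8 leaves) sprayed to runoff with compound as 20% spray powder, then after drying inoculated on leaf undersides with sporangial suspension (~20,000/ml). Incubated at 22–24 °C, saturated humidity, 3–4 days normal humidity (30–70%), then one day saturated; activity from mean % infested leaf area per treatment.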

The test system of another assay is Helminthosporium gram. Conditions: 50 g active agent per 100 kg; about 5 weeks.
For another assay, the system named is Botrytis cinerea. Nature of the assay: Prophylactic leaf treatment of tomato plants against Botrytis cinerea. The assay is classed as in vivo. Conditions: concentration of 0.025 of the active agent (unit not given).
In a further assay the test system is Fusarium avenaceum. The assay is described as follows: Threshold concentration test in case of Fusarium avenaceum (infested soil, garden peas). It is filed as in vivo. To be noted: for number of sound peas: 20 grains per dish, 18 days at 20-24° C.; for root evaluation (1-4): 18 days. An outline of the steps: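 Soil heavily infested with Fusarium avenaceum was mixed uniformly with a 20% powder formulation of active agent, then sown immediately with 20 garden pea seeds ('Wunder von Kelvedon') per dish. After 18 days in a greenhouse at 20° to 24° C., sound plants were counted and roots scored on a 1–4 scale.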

Where [2] appears, read: concentration of active agent 0.005 (unit not given).
[3] abbreviates: concentration of active agent 0.025 (unit not given).

This note sets out measurements from patent US4281121A, “1,3,4-Thiadiazole-2-carboxylic acid derivatives, process for making the same and fungicidal and nematocidal compositions containing same” (Schering Aktiengesellschaft, priority 1978, dated 1981).

As for `CC(C)NC(=O)c1nnc(S(C)(=O)=O)s1` [5-methylsulfonyl-1,3,4-thiadiazole-2-carboxylic acid-isopropylamide], the “% activity” value in the assay on Tilletia caries (10 g active agent per 100 kg) worked out at 100%; with Tilletia caries (20 g active agent per 100 kg), 100%; with Tilletia caries (50 g active agent per 100 kg), 100%; with Venturia inaequalis (concentration of active agent 0.005 (in gram)), 85%; in the assay with Venturia inaequalis (concentration of active agent 0.025 (in gram)) it was 100%; in assay [1], 100%. Further, the “% activity” value in the assay with Piricularia oryzae is on record as 90%; in the assay with Plasmopara viticola (setting [2]) it was 76%; in the assay with Plasmopara viticola (setting [3]) it was 96%; in the assay with Helminthosporium gram it was 90%. Further, the “root evaluation (1-4)” value in the assay with Pythium ultimum (20 mg/l soil), with Pythium ultimum (40 mg/l soil) and in the assay with Pythium ultimum (80 mg/l soil) was 4 each time. The entries for the “number of sound peas” value in the assay with Pythium ultimum (20 mg/l soil), in the assay on Pythium ultimum (40 mg/l soil) and with Pythium ultimum (80 mg/l soil) were 15, 18 and 15, respectively.
As for `CCCCNC(=O)c1nnc([S+]([O-])CCC)s1` (stereo not shown) [5-propylsulfinyl-1,3,4-thiadiazole-2-carboxylic acid-butylamide], the “% activity” value is 100% in the assay with Tilletia caries (20 g active agent per 100 kg); 100% in the assay on Tilletia caries (50 g active agent per 100 kg); 80% in the assay with Botrytis cinerea; 91% in the assay with Plasmopara viticola (setting [2]); 99.1% in the assay with Plasmopara viticola (setting [3]).
Turning to `CCS(=O)(=O)c1nnc(C(=O)NC2CCCCCCC2)s1` [5-ethylsulfonyl-1,3,4-thiadiazole-2-carboxylic acid-cyclooctylamide], the “% activity” value is 100% with Tilletia caries (10 g active agent per 100 kg); 100% in the assay with Tilletia caries (20 g active agent per 100 kg); 100% with Tilletia caries (50 g active agent per 100 kg); 93% in the assay on Botrytis cinerea; 98% in the assay on Helminthosporium gram.
For the molecule `CCCCCS(=O)(=O)c1nnc(C(N)=O)s1` [5-pentylsulfonyl-1,3,4-thiadiazole-2-carboxamide], the results for the “% activity” value with Tilletia caries (50 g active agent per 100 kg) and with Botrytis cinerea were 80% and 87%, respectively. In addition, the “number of sound peas” value in the assay on Fusarium avenaceum (25 mg/l soil) is on record as 9; in the assay with Fusarium avenaceum (50 mg/l soil) it was 16; in the assay with Fusarium avenaceum (100 mg/l soil), 18. Further, the “root evaluation (1-4)” value with Fusarium avenaceum (25 mg/l soil) worked out at 2; in the assay with Fusarium avenaceum (50 mg/l soil), 3; in the assay with Fusarium avenaceum (100 mg/l soil), 4.
For `CS(=O)(=O)c1nnc(C(=O)NC2CC2)s1` [5-methylsulfonyl-1,3,4-thiadiazole-2-carboxylic acid-cyclopropylamide], the results for the “% activity” value in the assay on Tilletia caries (20 g active agent per 100 kg), in the assay on Tilletia caries (50 g active agent per 100 kg) and in the assay on Botrytis cinerea were 98%, 100% and 75%, respectively. The figures for the “root evaluation (1-4)” value in the assay with Pythium ultimum (20 mg/l soil), in the assay on Pythium ultimum (40 mg/l soil) and in the assay with Pythium ultimum (80 mg/l soil) were 1, 4 and 4, respectively. Besides, the entries for the “number of sound peas” value with Pythium ultimum (20 mg/l soil), with Pythium ultimum (40 mg/l soil) and in the assay on Pythium ultimum (80 mg/l soil) were 13, 20 and 20, respectively.
With `CCC[S+]([O-])c1nnc(C(=O)N(C)C)s1` (stereo not shown) [5-propylsulfinyl-1,3,4-thiadiazole-2-carboxylic acid-dimethylamide], the “% activity” value worked out at 100% in the assay with Tilletia caries (20 g active agent per 100 kg), 100% in the assay with Tilletia caries (50 g active agent per 100 kg), 80% in the assay with Botrytis cinerea and 100% in the assay with Helminthosporium gram. Moreover, the figures for the “root evaluation (1-4)” value with Pythium ultimum (20 mg/l soil), with Pythium ultimum (40 mg/l soil) and in the assay with Pythium ultimum (80 mg/l soil) were 1, 4 and 4, respectively. For the same molecule, the “number of sound peas” value was 12 in the assay with Pythium ultimum (20 mg/l soil), 18 in the assay with Pythium ultimum (40 mg/l soil) and 19 with Pythium ultimum (80 mg/l soil).
Consider `CCCS(=O)(=O)c1nnc(C(=O)N2CCC2)s1` [5-propylsulfonyl-1,3,4-thiadiazole-2-carboxylic acid-N,N-trimethyleneamide], for which the “% activity” value in the assay on Tilletia caries (50 g active agent per 100 kg) came to 100%; with Botrytis cinerea it was 87%. The “root evaluation (1-4)” value in the assay with Pythium ultimum (20 mg/l soil) turned out to be 1; in the assay on Pythium ultimum (40 mg/l soil), 4; with Pythium ultimum (80 mg/l soil), 4; with Fusarium avenaceum (25 mg/l soil), 2; in the assay with Fusarium avenaceum (50 mg/l soil), 3; in the assay with Fusarium avenaceum (100 mg/l soil), 3. For the same molecule, the “number of sound peas” value was determined as 6 in the assay on Pythium ultimum (20 mg/l soil); 19 in the assay with Pythium ultimum (40 mg/l soil); 18 with Pythium ultimum (80 mg/l soil); 11 with Fusarium avenaceum (25 mg/l soil); 17 in the assay on Fusarium avenaceum (50 mg/l soil); 17 in the assay on Fusarium avenaceum (100 mg/l soil).
